Measurements from patent US5093351A, “Substituted indole, benzofuran and benzothiophene derivatives as 5-lipoxygenase inhibitors” (Du Pont Merck Pharmaceutical Company, priority 1989, dated 1992).

Key:
[1] = target: T1, 5-lipoxygenase (Rattus norvegicus, UniProt P12527); experiment: 5-lipoxygenase inhibition, 10,000×g supernatant from homogenized rat basophilic leukemia (RBL-1) cells; format: biochemical; settings: RBL-1 10,000×g supernatant, pH 7.0, 5 min incubation with compound, 14C-arachidonic acid, 37° C., two minutes
T1 construct: endogenous in cells; host or cells: RBL-1 (rat basophilic leukemia) cells, 10,000×g supernatant of homogenate
T1 sequence (P12527 1-673): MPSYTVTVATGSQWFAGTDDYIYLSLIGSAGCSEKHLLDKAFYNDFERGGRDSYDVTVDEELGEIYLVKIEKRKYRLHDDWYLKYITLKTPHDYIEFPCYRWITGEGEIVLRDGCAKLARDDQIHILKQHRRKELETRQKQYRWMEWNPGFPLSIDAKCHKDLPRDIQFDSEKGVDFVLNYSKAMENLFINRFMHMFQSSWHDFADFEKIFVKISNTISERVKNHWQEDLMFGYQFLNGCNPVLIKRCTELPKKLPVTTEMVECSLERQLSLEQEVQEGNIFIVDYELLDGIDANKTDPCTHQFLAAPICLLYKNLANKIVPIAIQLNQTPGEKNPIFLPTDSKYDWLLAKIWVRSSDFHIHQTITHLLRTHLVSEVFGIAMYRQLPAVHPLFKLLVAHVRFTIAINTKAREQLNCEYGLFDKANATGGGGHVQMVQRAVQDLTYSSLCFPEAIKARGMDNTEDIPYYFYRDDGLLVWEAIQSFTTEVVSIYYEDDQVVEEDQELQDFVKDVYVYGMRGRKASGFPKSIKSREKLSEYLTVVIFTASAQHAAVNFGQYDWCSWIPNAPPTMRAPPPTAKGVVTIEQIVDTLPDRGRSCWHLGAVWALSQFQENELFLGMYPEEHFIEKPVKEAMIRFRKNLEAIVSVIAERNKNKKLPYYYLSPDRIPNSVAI
Procedure: The test method is a modification of the procedure developed by Jakschik et al. (Prostaglandins (1978) 16, 733; Biochem. Biophys. Res. Commun. (1980) 95, 103; Biochem. Biophys. Res. Commun. (1981) 102, 624).
The 10,000×g supernatant from homogenized RBL-1 cells was incubated with test compound in a pH 7.0 phosphate buffer for five minutes. ^14 C-arachidonic acid was added to initiate the reaction, which was allowed to continue at 37° C. for two minutes. The reaction was stopped by freezing in a dry ice/ethanol slurry, and the 5-lipoxygenase products were separated from the substrate on silica gel columns. The amount of individual lipoxygenase products produced was determined and the percent inhibition calculated.

[2] = tested on: arachidonic acid-induced ear edema; experiment: Arachidonic acid-induced ear edema in CF1 mice, topical; format: in vivo; settings: Mus musculus, 1 h, 100 μg/ear, topical in acetone just prior to 1 mg arachidonic acid, one hour after challenge
Procedure: This assay indicates a specific use in the treatment of skin diseases such as psoriasis. This assay also implies a reduction in leukotrienes caused by the compounds of the invention, and indicates the use of these compounds in other diseases where the production of leukotrienes is involved in the pathological process.
The assay is a modification of the procedure described by Young et al. (J. Invest. Dermatol. (1983) 80, 48). 1 mg of arachidonic acid is applied as an acetone solution to the inner surface of the pinna of CF1 mice. Test compound dissolved in acetone is applied to the ear just prior to the arachidonic acid challenge. One hour after challenge, 6 mm disks are removed from the ear with a biopsy punch, and the weight is determined. The results are determined as a percent inhibition of the swelling which occurs in the absence of the test compound.

IC50 [1] [nM]	Compound	inhibition in vivo at 100 µg/ear [2] [%]
56	Cn1ccc2c(O)c(Cc3ccccc3)ccc21 [Example 1a, 1-Methyl-4-hydroxy-5-phenylmethylindole]	74
–	CC(=O)Oc1c(Cc2cccs2)ccc2c1ccn2C [Example 6b]	54
130	Oc1c(Cc2ccccc2)ccc2sccc12 [Example 1b]	53
–	COc1ccc(Cc2ccc3c(ccn3C)c2O)cc1 [Example 1e]	64
42	Oc1c(Cc2ccccc2)ccc2c1ccn2Cc1ccccc1 [Example 1d]	41
400	Oc1c(Cc2ccccc2)ccc2occc12 [Example 1c]	42
–	Cn1ccc2c(O)c(Cc3ccc4c(c3)OCO4)ccc21 [Example 1g]	54
–	COc1ccc(Cc2ccc3c(ccn3C)c2OC(C)=O)cc1 [Example 6c]	72

Compound	IC50 [1] [nM]	inhibition in vivo at 100 µg/ear [2] [%]
CC(=O)Oc1c(Cc2ccccc2)ccc2c1ccn2C [Example 6a, 1-Methyl-4-acetoxy-5-phenylmethylindole]	420	72
